{"source": "patent US20090081170A1", "about": "“Cardiac progenitor cells” (priority 2007, published 2009)", "key": {"[1]": {"tested_on": "adult heart explants (adult EPDCs)", "test": "Adult epicardial explant culture: EPDC outgrowth and differentiation", "assay_type": "cell-based, mouse", "experimental": "A simple protocol for the outgrowth and differentiation of vasculogenic precursor cells (endothelial and vascular smooth muscle cells) from adult heart using Thymosin β4 to stimulate epicardial cell migration is described below.\n• 1. Coat 6-well plates with gelatin: pipette 2 ml 0.1% gelatin solution, allow to stand for 15 minutes and aspirate. Optionally, place coverslips into wells, prior to gelatin coating. • 2. Cull adult mouse by cervical dislocation. • 3. Using sterile forceps and scissors make a lateral incision in the centre of the abdomen and tear back the fur to expose the rib cage. • 4. Carefully cut upwards through the sternum and along the diaphragm, taking care not to cut into the heart. Pull back the ribs to reveal the heart. • 5. Remove the heart using forceps and dissect away the atria and major vessels, to leave right and left ventricles. • 6. Place tissue in a 60 mm tissue culture dish (non gelatin coated) containing 2 ml DPBS. Cut into quarters and allow blood to rinse from the tissue. Carefully aspirate away DPBS. Using a sterile scalpel, cut the heart into pieces of approximately 1 mm^3. Reproducible EPDC outgrowth strongly depends upon the size of the heart pieces (optimally 1 mm^3). Larger pieces will not adhere to permit sufficient migration while smaller pieces tend to dissociate completely and cardiomyocyte death precedes adherence and EPDC outgrowth. • 7. Divide heart pieces into 4 equal portions (1 adult heart is typically divided between 4 wells for optimal EPDC outgrowth). • 8. Pipette 2 ml of EPDC culture medium, supplemented with 100 ng/ml Tβ4, into each well to be used. • 9. Place 1 portion of heart tissue into the centre of each well and ensure that all pieces are submerged. • 10. Gently transfer the plate to a humidified 5% CO2 37° C. incubator. Maintain cultures with minimum disturbance to allow explants to adhere. No feeding is required for the first 72 hours. Minimal disturbance is absolutely essential for EPDC outgrowth. Explants adhere only tenuously in the first instance and disturbance in the first few days of culture will prevent adhesion or lead to detachment. Plates should be transferred extremely cautiously between incubator and microscope or culture hood. After sufficient EPDCs have emerged, explants attach more firmly but care is still required as detachment may easily occur. • 11. After 72 hours in culture, carefully transfer plate to culture hood, wash explants gently with DPBS and add 2 ml fresh EPDC medium containing 100 ng/ml Tβ4. Leave for a further 24 hours before assessment of cellular phenotype.\n• 1. Culture adult heart explants as described above. • 2. After 72 hours of culture, fix cells with 4% PFA for 10 minutes at room temperature. • 3. Wash cells twice with PBS. • 4. Permeabilise cells with 0.5% Triton X-100 in PBS for 5 minutes at room temperature. • 5. Wash cells twice with PBS. • 6. Block non-specific binding by incubating cells in BLOCK (1% BSA/10% sheep serum in PBS) for 1 hour at room temperature. • 7. Incubate cells with an appropriate dilution of primary antibody (epicardin, 1:100; SMalphaA, 1:700; Flk1, 1:100), or Procollagen type I, 1:100), in BLOCK. • 8. Wash cells 3 times using BLOCK. • 9. Incubate cells with the appropriate secondary antibody (epicardin: Cy3-conjugated anti-rabbit; SMalphaA: FITC-conjugated anti-mouse, 1:30; Procollagen type I: Alexa 488-conjugated anti-goat, 1:200; Flk1: Alexa 594-conjugated anti-rat, 1:200) diluted in BLOCK. • 10. Wash cells twice in PBS. • 11. Optionally, to stain nuclei, incubate with 5 ug/ml Hoechst in PBS for 5 minutes at room temperature. • 12. Wash cells twice in PBS. • 13. Mount coverslips onto microscope slides using 50% glycerol in PBS as mountant and visualize using a fluorescence microscope. […]"}, "[2]": {"tested_on": "Tβ4shNk embryo hearts at E14.5", "test": "AcSDKP intraperitoneal injection into pregnant females, rescue of Tβ4 knockdown embryo hearts", "assay_type": "in vivo, mouse", "conditions": "E14.5 Tβ4shNk embryos", "source_text": "To investigate a role for Tβ4 during heart development and to provide insight into the mechanism by which the peptide mediates adult cardiac repair, we generated mouse embryos with heart-specific Tβ4 deficiency using a novel strategy of transgenic conditional RNA interference (RNAi; as described above). Floxed Tβ4 short hairpin RNA (Tβ4shRNAflox) mice were crossed with two strains of Cre-expressing mice: Nkx2-5^CreKI (designated Tβ4shNk), which directs Cre expression throughout the majority of cardiomyocytes, and MLC2vCreKI (designated Tβ4shMlc), which directs Cre expression specifically to ventricular cardiomyocytes. Tβ4shNk embryos were also observed to have thymic defects consistent not only with Cre expression driven by Nkx2-5 in the developing thymus, but also with the thymus representing an obvious source of Tβ4.\nWe next investigated whether AcSDKP could rescue any of the vasculogenesis defects observed in the Tβ4 mutant hearts. […] This supports our interpretation of the primary phenotype in Tβ4 mutants. AcSDKP lacks actin binding function, rendering it unable to stimulate filamentous actin assembly and lamellipodia-based cell migration and consequently unable to rescue the EPDC defect. […]"}}, "note": "Where a SMILES comes first, the peptide text is derived from it."}
{"smiles": "CC(=O)N[C@@H](CO)C(=O)N[C@@H](CC(=O)O)C(=O)N[C@@H](CCCCN)C(=O)N1CCC[C@H]1C(=O)O", "note": "[AcSDKP, N-acetyl-seryl-aspartyllysyl-proline] (Ac-SDKP-OH)", "values": [{"measurement": "differentiated (Flk1-positive) endothelial cells", "setting": "[1]; adult epicardial explants", "value": "striking increase"}, {"measurement": "smooth muscle cells in treated cultures", "setting": "[1]; adult epicardial explants, data not shown", "value": "only very few smooth muscle cells observed"}, {"measurement": "EPDC outgrowth from adult heart explants", "setting": "[1]; adult mouse heart explants, 8-12 weeks, vs untreated explants", "value": "unable to promote epicardial outgrowth beyond control levels"}, {"measurement": "rescue of the phenotype attributed to Tβ4 knockdown", "setting": "[2]", "value": "failed to rescue any of the phenotype"}]}
